Broadly, the EC50 is the concentration giving half of the maximal effect. A word on the IC50: it is the concentration that inhibits the measured activity by half.

From ChEMBL document CHEMBL1201862, “PubChem BioAssay data set” (2004) come the findings set out here.

Assay [1] is described as follows: cells. It is filed as functional, cell-based.
Assay [2] is described as follows: cells. Type of assay: functional, cell-based. This is another data set of the same source.
In assay [3] the target is T1, Zinc finger protein mex-5 (Caenorhabditis elegans, UniProt Q9XUB2).
T1 sequence (Q9XUB2 whole entry): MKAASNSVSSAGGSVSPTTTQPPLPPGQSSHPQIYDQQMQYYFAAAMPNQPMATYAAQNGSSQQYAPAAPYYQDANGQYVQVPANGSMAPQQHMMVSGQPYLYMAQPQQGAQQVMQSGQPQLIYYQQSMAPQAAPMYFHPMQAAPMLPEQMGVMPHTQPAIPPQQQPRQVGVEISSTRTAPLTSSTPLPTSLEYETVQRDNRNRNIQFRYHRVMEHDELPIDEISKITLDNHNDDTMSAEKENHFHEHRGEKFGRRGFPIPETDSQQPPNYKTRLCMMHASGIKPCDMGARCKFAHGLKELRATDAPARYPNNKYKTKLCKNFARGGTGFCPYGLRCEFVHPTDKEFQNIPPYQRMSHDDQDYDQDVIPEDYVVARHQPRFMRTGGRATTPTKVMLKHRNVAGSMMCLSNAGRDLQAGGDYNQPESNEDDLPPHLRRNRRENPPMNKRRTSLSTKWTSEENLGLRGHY
The assay is described as follows: potency of MEX-5 RNA-binding blockers – biochemical, C. elegans, fluorescence polarization, dose response (AID 1960). (In general: Polarisation of emitted light reports the rotation of a fluorescent probe.)

Assay [4] has as its target T2, RNA-binding protein pos-1 (Caenorhabditis elegans, UniProt G5EF15).
T2 sequence (G5EF15 whole entry): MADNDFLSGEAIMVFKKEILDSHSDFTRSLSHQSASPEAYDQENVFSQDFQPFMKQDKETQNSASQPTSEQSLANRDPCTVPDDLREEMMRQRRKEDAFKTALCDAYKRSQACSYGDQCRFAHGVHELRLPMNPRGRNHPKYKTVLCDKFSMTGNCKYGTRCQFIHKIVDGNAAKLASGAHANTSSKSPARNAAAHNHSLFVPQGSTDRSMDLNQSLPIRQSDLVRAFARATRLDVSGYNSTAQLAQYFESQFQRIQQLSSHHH
As to the kind of experiment: disruptors of C. elegans POS-1 RNA interaction – biochemical, fluorescence polarization, dose response (AID 1964).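 Note: purified POS-1 fused to maltose binding protein made in E. coli; potency of compounds blocking POS-1 binding to fluorescent RNA.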

The target in assay [5] is T3, Heat shock factor protein 1 (Mus musculus, UniProt P38532).
T3 sequence (P38532 whole entry): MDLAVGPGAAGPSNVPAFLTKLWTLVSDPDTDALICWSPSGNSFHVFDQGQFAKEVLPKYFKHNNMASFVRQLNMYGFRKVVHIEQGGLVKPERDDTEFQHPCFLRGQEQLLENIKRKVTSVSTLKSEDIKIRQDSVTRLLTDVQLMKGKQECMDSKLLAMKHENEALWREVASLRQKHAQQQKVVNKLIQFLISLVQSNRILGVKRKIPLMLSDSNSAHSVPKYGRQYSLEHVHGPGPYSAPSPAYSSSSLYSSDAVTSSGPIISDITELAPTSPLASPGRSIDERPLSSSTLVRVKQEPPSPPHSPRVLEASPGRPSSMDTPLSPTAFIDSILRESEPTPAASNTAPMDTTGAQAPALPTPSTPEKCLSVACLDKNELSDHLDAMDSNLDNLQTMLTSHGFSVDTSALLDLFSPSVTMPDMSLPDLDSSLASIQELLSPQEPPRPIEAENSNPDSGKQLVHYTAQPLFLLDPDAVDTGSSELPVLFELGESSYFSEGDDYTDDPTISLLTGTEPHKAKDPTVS
The assay is described as follows: decrease of HSF1-responsive luciferase luminescence – cell-based, NIH3T3, dose retest, confirmation (AID 2382).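 Note: NIH3T3 fibroblasts with HSF1-driven luciferase reporter stressed by proteasome inhibitor MG132; luminescence from HSF1-driven luciferase expression after 8 hours of MG132 stress.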 Type of assay: functional.

In assay [6] the target is T3, Heat shock factor protein 1. As to the kind of experiment: enhancement of HSF1-driven luciferase signal – cell-based, NIH3T3, luminescence, dose retest, confirmation (AID 435004).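 Note: stress induced by proteasome inhibitor MG132 added 30 min after compound; luciferase reporter driven by HSF1 response element in NIH3T3 cells; actives raise luminescence as potentiators of the MG132 stress response.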 It is filed as functional.
In assay [7] the target is T4, Sentrin-specific protease 6 (Homo sapiens, UniProt Q9GZR1).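 Note: Luminescence-based dose-response confirmatory assay of SENP6 inhibition, following up an ultra-high-throughput screen.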
T4 sequence (Q9GZR1 whole entry): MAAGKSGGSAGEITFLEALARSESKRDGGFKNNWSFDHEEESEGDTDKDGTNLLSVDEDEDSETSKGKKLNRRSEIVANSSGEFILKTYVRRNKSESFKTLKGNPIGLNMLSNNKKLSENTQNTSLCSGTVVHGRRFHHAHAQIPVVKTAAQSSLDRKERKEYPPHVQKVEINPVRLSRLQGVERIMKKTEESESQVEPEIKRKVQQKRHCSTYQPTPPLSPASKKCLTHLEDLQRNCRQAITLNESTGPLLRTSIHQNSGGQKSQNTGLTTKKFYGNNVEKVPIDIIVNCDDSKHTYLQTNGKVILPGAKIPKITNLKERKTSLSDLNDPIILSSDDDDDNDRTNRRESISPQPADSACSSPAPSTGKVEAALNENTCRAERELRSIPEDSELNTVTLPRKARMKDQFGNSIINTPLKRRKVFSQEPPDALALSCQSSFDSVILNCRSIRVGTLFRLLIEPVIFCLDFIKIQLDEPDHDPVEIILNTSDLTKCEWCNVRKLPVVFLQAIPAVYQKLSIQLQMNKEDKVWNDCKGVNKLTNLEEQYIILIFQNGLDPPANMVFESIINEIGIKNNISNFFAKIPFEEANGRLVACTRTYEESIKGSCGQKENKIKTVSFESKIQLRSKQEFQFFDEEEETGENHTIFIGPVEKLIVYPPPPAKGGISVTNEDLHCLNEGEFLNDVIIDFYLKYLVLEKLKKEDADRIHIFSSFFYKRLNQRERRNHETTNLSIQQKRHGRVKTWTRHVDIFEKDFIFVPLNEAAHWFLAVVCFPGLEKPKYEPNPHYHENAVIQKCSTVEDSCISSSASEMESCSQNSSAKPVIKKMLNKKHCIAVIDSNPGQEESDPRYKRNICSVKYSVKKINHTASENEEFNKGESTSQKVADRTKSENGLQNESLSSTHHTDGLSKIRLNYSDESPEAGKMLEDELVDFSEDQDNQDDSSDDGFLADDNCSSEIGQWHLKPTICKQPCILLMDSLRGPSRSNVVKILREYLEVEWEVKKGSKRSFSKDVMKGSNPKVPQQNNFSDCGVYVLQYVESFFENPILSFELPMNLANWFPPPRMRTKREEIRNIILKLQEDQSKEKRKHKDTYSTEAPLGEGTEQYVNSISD
It is filed as functional.

For assay [8], the target named is T5, Caspase-3 (Homo sapiens, UniProt P42574).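 Note: Dose-response selectivity test against caspase-3 for candidate inhibitors of sentrin-specific proteases (SENPs).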
T5 sequence (P42574 whole entry): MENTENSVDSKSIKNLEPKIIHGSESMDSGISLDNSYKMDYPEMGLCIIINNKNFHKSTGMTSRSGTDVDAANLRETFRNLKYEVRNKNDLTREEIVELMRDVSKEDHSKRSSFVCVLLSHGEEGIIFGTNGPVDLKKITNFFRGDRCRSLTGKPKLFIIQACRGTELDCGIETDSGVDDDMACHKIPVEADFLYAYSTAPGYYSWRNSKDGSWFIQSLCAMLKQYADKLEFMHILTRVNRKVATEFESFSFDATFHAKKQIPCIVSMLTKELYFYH
Type of assay: functional.

Assay [9] addresses T6, Sentrin-specific protease 8 (Homo sapiens, UniProt Q96LD8).
T6 sequence (Q96LD8 whole entry): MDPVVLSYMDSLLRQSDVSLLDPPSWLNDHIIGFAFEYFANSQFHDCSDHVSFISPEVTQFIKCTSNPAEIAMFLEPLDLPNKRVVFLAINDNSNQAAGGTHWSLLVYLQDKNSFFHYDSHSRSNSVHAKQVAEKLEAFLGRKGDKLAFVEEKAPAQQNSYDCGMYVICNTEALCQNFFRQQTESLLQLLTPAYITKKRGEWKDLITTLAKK
Type of assay: functional.

Assay [10] addresses T7, Sentrin-specific protease 7 (Homo sapiens, UniProt Q9BQF6).
T7 sequence (Q9BQF6 whole entry): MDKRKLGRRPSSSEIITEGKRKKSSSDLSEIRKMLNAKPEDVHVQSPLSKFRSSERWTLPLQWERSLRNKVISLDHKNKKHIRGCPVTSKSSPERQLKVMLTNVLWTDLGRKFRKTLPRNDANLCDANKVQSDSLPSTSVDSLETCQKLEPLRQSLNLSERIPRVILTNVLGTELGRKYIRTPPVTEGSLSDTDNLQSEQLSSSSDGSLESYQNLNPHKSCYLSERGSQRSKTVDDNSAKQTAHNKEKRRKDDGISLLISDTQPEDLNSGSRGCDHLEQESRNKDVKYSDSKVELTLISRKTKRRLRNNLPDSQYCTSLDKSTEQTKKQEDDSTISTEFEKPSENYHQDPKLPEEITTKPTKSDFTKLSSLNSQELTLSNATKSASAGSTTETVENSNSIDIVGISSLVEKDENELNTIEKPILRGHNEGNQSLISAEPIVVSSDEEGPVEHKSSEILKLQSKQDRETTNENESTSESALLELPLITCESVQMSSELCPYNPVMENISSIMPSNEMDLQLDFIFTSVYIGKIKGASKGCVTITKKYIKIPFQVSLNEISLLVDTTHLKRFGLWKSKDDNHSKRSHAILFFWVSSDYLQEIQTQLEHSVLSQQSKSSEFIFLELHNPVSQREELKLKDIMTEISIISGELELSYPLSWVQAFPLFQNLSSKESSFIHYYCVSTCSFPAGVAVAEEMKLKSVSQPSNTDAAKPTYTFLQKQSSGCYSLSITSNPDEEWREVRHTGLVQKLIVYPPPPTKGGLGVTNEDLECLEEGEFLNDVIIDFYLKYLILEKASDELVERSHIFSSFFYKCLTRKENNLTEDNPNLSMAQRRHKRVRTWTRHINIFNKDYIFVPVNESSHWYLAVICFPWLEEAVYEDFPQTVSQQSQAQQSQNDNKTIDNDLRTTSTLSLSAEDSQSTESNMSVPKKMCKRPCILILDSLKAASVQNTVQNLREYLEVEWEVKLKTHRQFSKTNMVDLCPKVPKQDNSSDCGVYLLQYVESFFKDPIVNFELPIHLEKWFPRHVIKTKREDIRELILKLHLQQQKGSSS
Type of assay: functional.

In assay [11] the target is T8, Ubiquitin-conjugating enzyme E2 N (Homo sapiens, UniProt P61088).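 Note: Dose-response confirmation in a TR-FRET assay detecting UBC13-driven polyubiquitin chain formation, inhibition measured.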
T8 sequence (P61088 whole entry): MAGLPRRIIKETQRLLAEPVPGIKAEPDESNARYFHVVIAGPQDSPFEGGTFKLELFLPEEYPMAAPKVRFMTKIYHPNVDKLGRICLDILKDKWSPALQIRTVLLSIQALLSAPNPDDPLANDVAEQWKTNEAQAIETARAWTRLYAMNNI
It is filed as functional.

The source made the active and inactive calls. Cut-off read from the data, not from the text of the source, for most assays here: actives have a measured EC50 and inactives only a lower limit.

Consider `COc1ccccc1CC(=N)NO`, for which the EC50 in assay [1] and in [2] was > 350 µM (not active) throughout.
Consider `Cc1ccc(CN(C)C(=O)CC2C(=O)NCCN2CC2CCCCC2)cc1` (configuration not stated), for which the results for the EC50 in assay [3] and in [4] were > 300 µM (not active) and 175 µM (active), respectively.
For `C#Cc1ccc([C@@H]2C=C(C(=O)OCC=C)O[C@H](OCc3ccc(CO)cc3)C2)cc1`, in assay [5], the EC50 was > 195 µM (not active).
Take `CC(C)c1cc(-c2cc(C(=O)NCc3ccccc3)on2)nc(NC2CCCC2)n1`: the EC50 in [1] and in assay [2] was > 350 µM (not active) in each case.
As for `COc1ccc(Cc2nnc(SCC(=O)NC3CCCCC3)n2C)cc1`, the EC50 in [1] and in [2] was > 350 µM (not active) throughout.
With `CCOC(=O)c1ccc(-n2c(CCC(=O)O)ccc2-c2ccc(F)cc2)cc1`, the EC50 in assay [3] and in [4] was > 300 µM (not active) each time.
`Cc1noc(C)c1CSc1ncnc2sc3c(c12)CCC3`: the EC50 in [5] is listed as > 195 µM (not active).
Turning to `CCOc1ccc(NC(=O)CC2C(=O)Nc3ccccc3N2C(=O)c2ccccc2)cc1` (configuration not stated), the 50% effective concentration (EC50) in assay [1] and in assay [2] was > 350 µM (not active) throughout.
Take `CCN1C(=O)/C(=C\N(C)C)NC1=S`: the EC50 in assay [3] was 154 µM (inconclusive); in assay [4] it was 22.6 µM (active).
For the compound `CCCCc1nnc(NC(=O)c2ccc3nc(O)c(O)nc3c2)s1`, the EC50 in assay [1] and in assay [2] was > 350 µM (not active) each time.
On to `C=CCOc1ccc(C(c2c(C)n(C)n(-c3ccccc3)c2=O)c2c(C)n(C)n(-c3ccccc3)c2=O)cc1`, for which the EC50 in assay [5] is > 195 µM (not active).
Regarding `COc1ccc(CCC(=O)Nc2cccc(Cl)c2)cc1`, the concentration giving a half-maximal response (EC50) in [3] and in assay [4] was > 300 µM (not active) each time.
As for `CCOC(=O)C1=C(C)OC(N)=C(C#N)C1c1ccc(O)c(OC)c1` (configuration not stated), the EC50 in assay [3] and in assay [4] was > 300 µM (not active) in each case.
On to `Cc1ccc(C(=O)OCC(=O)c2ccc(Cl)s2)s1`, for which the EC50 in assay [6] was 20.3 µM (active). The IC50 in assay [7] is 24.6 µM (active); in assay [8], 18.9 µM (active); in assay [9], 29.7 µM (active); in [10], 7.61 µM (active).
`COc1ccccc1NC(=O)CSc1nc2ccccc2n1C(C)=O`: the IC50 in [11] was > 20 µM (inactive).
On to `Cn1c(C(=O)NN)cc2cc(OCc3ccccc3)ccc21`, for which, in assay [5], the EC50 is on record as > 195 µM (not active).
As for `CCNC(=O)c1cc2c(=O)n3cccc(C)c3nc2n(Cc2ccc(C)cc2)c1=N`, the EC50 in assay [3] was 45.5 µM (active); in assay [4], > 300 µM (not active).
For the compound `CNC(=O)Cn1nc(C)c2ccccc2c1=O`, the EC50 in [5] is listed as > 195 µM (not active).
Take `CCc1ccc(OC(C)C(=O)N(Cc2ccco2)C2CCS(=O)(=O)C2)cc1` (configuration not stated): the EC50 in assay [5] is listed as > 195 µM (not active).
As for `Cc1noc(C)c1COC(=O)C1CC(O)CN1S(=O)(=O)c1ccc(Cl)cc1` (configuration not stated), the EC50 in assay [1] and in [2] was > 350 µM (not active) each time.
With `COc1ccc(/C=N/NC(=O)CN(C)S(=O)(=O)c2ccc(NC(C)=O)cc2)cc1`, the EC50 in assay [5] is > 195 µM (not active).
